According to patent US12605396B2, “Methods of treating mastitis with an orthosomycin antimicrobial compound” (Intervet Inc., priority 2020, dated 2026):
≈ marks a conversion by molar mass, not a printed value. Where “and” joins values, the source holds several entries; their conditions need not be identical. Equal values may be shown once. Entries after “also recorded” stand apart in the source; their conditions may differ. Read-outs that look alike come from different tables or passages of the source.

Tests used:
S. aureus [1] = assay: MIC in full cream UHT milk with alamar Blue; type: cell-based, Staphylococcus aureus; details: for Distribution of MIC values: isolates with MIC 0.125 μg/ml / Distribution of MIC values: isolates with MIC 0.25 μg/ml / Distribution of MIC values: isolates with MIC 0.5 μg/ml / Distribution of MIC values: isolates with MIC 1 μg/ml / Distribution of MIC values: isolates with MIC 2 μg/ml / Distribution of MIC values: isolates with MIC 4 μg/ml / Distribution of MIC values: isolates with MIC 8 μg/ml / Distribution of MIC values: isolates with MIC 16 μg/ml / Distribution of MIC values: isolates with MIC 32 μg/ml / Distribution of MIC values: isolates with MIC 64 μg/ml / Distribution of MIC values: isolates with MIC >64 μg/ml / Distribution of MIC values: isolates with MIC ≤0.063 μg/ml / MIC90: S. aureus (n = 20); for S. aureus MIC, milk: individual S. aureus isolates, in µg/mL
Method: (§1) For MIC determination in milk, the in vitro activity was determined by measuring the minimum inhibitory concentrations (MIC) according to CLSI document VET01-A4 [1] using full cream UHT milk as test medium. About 2 h before the end of the incubation 10 μL of alamar Blue® was added to each well of the microdilution trays, resulting in a final concentration of 10% of alamar Blue®. Blue color of the medium indicated no living cells (no bacterial growth) red/pink to white color of the medium indicated living cells (bacterial growth). The MIC results were interpreted according to the CLSI document VET01-S3 [2].

S. aureus [2] = assay: MIC in bacteriological broth (CLSI VET01-A4); type: cell-based, Staphylococcus aureus; details: for S. aureus MIC, CAMHB: bacteriological broth (CAMHB), individual S. aureus isolates; for Activity against S. aureus isolates in bacteriological broth: different S. aureus isolates
Method: (§2) Minimal inhibitory concentrations (MIC) were determined in bacteriological broth according to Clinical and Laboratory Standard Institute (CLSI) guideline VET01-A4 [1]. The MIC results were interpreted according to the CLSI document VET01-S3 [2].

coa-neg Staph. = assay: MIC in bacteriological broth (CLSI VET01-A4); type: cell-based, coagulase-negative staphylococci
Method: as §2

Strep. agalactiae = assay: MIC in bacteriological broth (CLSI VET01-A4); type: cell-based, Streptococcus agalactiae
Method: as §2

Strep. dysgalactiae = assay: MIC in bacteriological broth (CLSI VET01-A4); type: cell-based, Streptococcus dysgalactiae
Method: as §2

S. uberis = assay: MIC in bacteriological broth (CLSI VET01-A4); type: cell-based, Streptococcus uberis
Method: as §2

Truep. pyogenes = assay: MIC in bacteriological broth (CLSI VET01-A4); type: cell-based, Trueperella pyogenes
Method: as §2

[3] = test system: mastitis-causing pathogens; assay: Antimicrobial activity against mastitis-causing pathogens (overall statement); type: cell-based; details: broth-dilution assay and milk
Method: as §2, §1

[4] = broth, of 15 Staph. aureus isolates
[5] = broth, of 15 coa-neg Staph. isolates
[6] = broth, of 15 Strep. agalactiae isolates
[7] = broth, of 15 Strep. dysgalactiae isolates
[8] = broth, of 15 Strep. uberis isolates

## CC1(C)S[C@@H]2[C@H](NC(=O)Cc3ccccc3)C(=O)N2[C@H]1C(=O)O [Penicillin G, penicillin G]
S. aureus [1]
  Distribution of MIC values: isolates with MIC 0.125 μg/ml: 0
  Distribution of MIC values: isolates with MIC 0.25 μg/ml: 0
  Distribution of MIC values: isolates with MIC 0.5 μg/ml: 0
  Distribution of MIC values: isolates with MIC 1 μg/ml: 1
  Distribution of MIC values: isolates with MIC 2 μg/ml: 0
  Distribution of MIC values: isolates with MIC 4 μg/ml: 0
  Distribution of MIC values: isolates with MIC 8 μg/ml: 2
  Distribution of MIC values: isolates with MIC 16 μg/ml: 1
  Distribution of MIC values: isolates with MIC 32 μg/ml: 1
  Distribution of MIC values: isolates with MIC 64 μg/ml: 0
  Distribution of MIC values: isolates with MIC >64 μg/ml: 1
  Distribution of MIC values: isolates with MIC ≤0.063 μg/ml: 14
  MIC90: 16 µg/mL (≈ 47.8 µM)

## CC[C@@H](C(=O)[C@@H](C)[C@@H](O)[C@H](C)[C@@H]1O[C@@H]([C@@H](CC)C(=O)O)CC[C@@H]1C)[C@H]1O[C@]2(C=C[C@@H](O)[C@]3(CC[C@@](C)([C@H]4CC[C@](O)(CC)[C@H](C)O4)O3)O2)[C@H](C)C[C@@H]1C [Salinomycin, salinomycin]
S. aureus [2]
  S. aureus MIC, CAMHB: 0.25 (2×) and 1 and 0.5 (5×)
S. aureus [2]; bacteriological broth
  Activity against S. aureus isolates in bacteriological broth: active
S. aureus [1]
  Activity in milk: no activity; also recorded: lost any activity
  S. aureus MIC, milk: >32

## COC[C@H]1O[C@@H](O[C@@H]2OC[C@@H]3O[C@@]4(OC[C@@H](OC(=O)c5c(C)cc(O)cc5O)[C@@H]5OCO[C@H]54)O[C@H]3[C@H]2O)[C@@H](OC)[C@@H](O)C1O[C@@H]1O[C@H](C)[C@H](OC)[C@H](OC2O[C@H](C)[C@H]3O[C@]4(C[C@@H](O)[C@H](O[C@H]5C[C@@H](O[C@H]6C[C@](C)([N+](=O)[O-])[C@@H](OC)[C@H](C)O6)[C@H](OC(=O)c6c(C)c(Cl)c(O)c(Cl)c6OC)[C@@H](C)O5)[C@@H](C)O4)O[C@]3(C)[C@@H]2O)[C@H]1O (stereo partly shown) [evernimicin]
S. aureus [2]; Staphylococcus aureus, bacteriological broth, 15 Staph. aureus isolates tested, read-out: MIC50
  MIC50: 0.5 µg/mL (≈ 0.306 µM)
S. aureus [2]; Staphylococcus aureus, bacteriological broth, 15 Staph. aureus isolates tested, read-out: MIC90
  MIC90: 0.5 µg/mL (≈ 0.306 µM)
S. aureus [2]; Staphylococcus aureus, bacteriological broth, 15 Staph. aureus isolates tested, read-out: Maximum MIC
  MIC: 0.5 µg/mL (≈ 0.306 µM)
S. aureus [2]; Staphylococcus aureus, bacteriological broth, 15 Staph. aureus isolates tested, read-out: Minimum MIC
  MIC: 0.125 µg/mL (≈ 0.0766 µM)
S. aureus [2]; [4]
  Number of isolates with MIC 0.125 μg/mL: 1
  Number of isolates with MIC 0.25 μg/mL: 2
  Number of isolates with MIC 0.5 μg/mL: 12
coa-neg Staph.; bacteriological broth, 15 coa-neg Staph. isolates tested, read-out: MIC50
  MIC50: 0.5 µg/mL (≈ 0.306 µM)
coa-neg Staph.; bacteriological broth, 15 coa-neg Staph. isolates tested, read-out: MIC90
  MIC90: 1 µg/mL (≈ 0.613 µM)
coa-neg Staph.; bacteriological broth, 15 coa-neg Staph. isolates tested, read-out: Maximum MIC
  MIC: 8 µg/mL (≈ 4.9 µM)
coa-neg Staph.; bacteriological broth, 15 coa-neg Staph. isolates tested, read-out: Minimum MIC
  MIC: 0.25 µg/mL (≈ 0.153 µM)
coa-neg Staph.; [5]
  Number of isolates with MIC 0.25 μg/mL: 6
  Number of isolates with MIC 0.5 μg/mL: 6
  Number of isolates with MIC 1 μg/mL: 2
  Number of isolates with MIC 8 μg/mL: 1
Strep. agalactiae; Streptococcus agalactiae, bacteriological broth, 15 Strep. agalactiae isolates tested, read-out: MIC50
  MIC50: 0.125 µg/mL (≈ 0.0766 µM)
Strep. agalactiae; Streptococcus agalactiae, bacteriological broth, 15 Strep. agalactiae isolates tested, read-out: MIC90
  MIC90: 0.25 µg/mL (≈ 0.153 µM)
Strep. agalactiae; Streptococcus agalactiae, bacteriological broth, 15 Strep. agalactiae isolates tested, read-out: Maximum MIC
  MIC: 0.25 µg/mL (≈ 0.153 µM)
Strep. agalactiae; Streptococcus agalactiae, bacteriological broth, 15 Strep. agalactiae isolates tested, read-out: Minimum MIC
  MIC: 0.125 µg/mL (≈ 0.0766 µM)
Strep. agalactiae; [6]
  Number of isolates with MIC 0.125 μg/mL: 12
  Number of isolates with MIC 0.25 μg/mL: 3
Strep. dysgalactiae; Streptococcus dysgalactiae, bacteriological broth, 15 Strep. dysgalactiae isolates tested, read-out: MIC50
  MIC50: 0.125 µg/mL (≈ 0.0766 µM)
Strep. dysgalactiae; Streptococcus dysgalactiae, bacteriological broth, 15 Strep. dysgalactiae isolates tested, read-out: MIC90
  MIC90: 0.25 µg/mL (≈ 0.153 µM)
Strep. dysgalactiae; Streptococcus dysgalactiae, bacteriological broth, 15 Strep. dysgalactiae isolates tested, read-out: Maximum MIC
  MIC: 0.25 µg/mL (≈ 0.153 µM)
Strep. dysgalactiae; Streptococcus dysgalactiae, bacteriological broth, 15 Strep. dysgalactiae isolates tested, read-out: Minimum MIC
  MIC: 0.125 µg/mL (≈ 0.0766 µM)
Strep. dysgalactiae; [7]
  Number of isolates with MIC 0.125 μg/mL: 11
  Number of isolates with MIC 0.25 μg/mL: 4
S. uberis; Streptococcus uberis, bacteriological broth, 15 Strep. uberis isolates tested, read-out: MIC50
  MIC50: 0.25 µg/mL (≈ 0.153 µM)
S. uberis; Streptococcus uberis, bacteriological broth, 15 Strep. uberis isolates tested, read-out: MIC90
  MIC90: 0.5 µg/mL (≈ 0.306 µM)
S. uberis; Streptococcus uberis, bacteriological broth, 15 Strep. uberis isolates tested, read-out: Maximum MIC
  MIC: 0.5 µg/mL (≈ 0.306 µM)
S. uberis; Streptococcus uberis, bacteriological broth, 15 Strep. uberis isolates tested, read-out: Minimum MIC
  MIC: 0.125 µg/mL (≈ 0.0766 µM)
S. uberis; [8]
  Number of isolates with MIC 0.125 μg/mL: 2
  Number of isolates with MIC 0.25 μg/mL: 10
  Number of isolates with MIC 0.5 μg/mL: 3
Truep. pyogenes; Trueperella pyogenes, bacteriological broth, 15 Truep. pyogenes isolates tested, read-out: MIC50
  MIC50: ≤ 0.063 µg/mL
Truep. pyogenes; Trueperella pyogenes, bacteriological broth, 15 Truep. pyogenes isolates tested, read-out: MIC90
  MIC90: ≤ 0.063 µg/mL
Truep. pyogenes; Trueperella pyogenes, bacteriological broth, 15 Truep. pyogenes isolates tested, read-out: Maximum MIC
  MIC: ≤ 0.063 µg/mL
Truep. pyogenes; Trueperella pyogenes, bacteriological broth, 15 Truep. pyogenes isolates tested, read-out: Minimum MIC
  MIC: ≤ 0.063 µg/mL
Truep. pyogenes; broth, of 15 Truep. pyogenes isolates
  Number of isolates with MIC ≤0.063 μg/mL: 15
S. aureus [1]
  MIC90 against S. aureus compared with MIC90 of penicillin G: identical
  Distribution of MIC values: isolates with MIC 0.125 μg/ml: 0
  Distribution of MIC values: isolates with MIC 0.25 μg/ml: 0
  Distribution of MIC values: isolates with MIC 0.5 μg/ml: 0
  Distribution of MIC values: isolates with MIC 1 μg/ml: 0
  Distribution of MIC values: isolates with MIC 2 μg/ml: 0
  Distribution of MIC values: isolates with MIC 4 μg/ml: 4
  Distribution of MIC values: isolates with MIC 8 μg/ml: 11
  Distribution of MIC values: isolates with MIC 16 μg/ml: 5
  Distribution of MIC values: isolates with MIC 32 μg/ml: 0
  Distribution of MIC values: isolates with MIC 64 μg/ml: 0
  Distribution of MIC values: isolates with MIC >64 μg/ml: 0
  Distribution of MIC values: isolates with MIC ≤0.063 μg/ml: 0
S. aureus [1]; Staphylococcus aureus, read-out: MIC90
  MIC90: 16 µg/mL (≈ 9.81 µM)
[3]
  Antimicrobial activity against mastitis-causing pathogens: Good antimicrobial activity

## CC[C@@H](C(=O)[C@@H](C)[C@@H](O)[C@H](C)CCc1ccc(C)c(O)c1C(=O)O)[C@H]1O[C@](CC)([C@H]2CC[C@](O)(CC)[C@H](C)O2)C[C@@H]1C [Lasalocid, lasalocid]
S. aureus [2]
  S. aureus MIC, CAMHB: 0.25 (3×) and 1 (4×) and 0.5
S. aureus [2]; bacteriological broth
  Activity against S. aureus isolates in bacteriological broth: active
S. aureus [1]
  Activity in milk: no activity; also recorded: lost any activity
  S. aureus MIC, milk: >32

## CC[C@@]1([C@@H]2O[C@@H]([C@H]3O[C@@](O)(CO)[C@H](C)C[C@@H]3C)C[C@@H]2C)CC[C@H]([C@]2(C)CC[C@]3(C[C@H](O)[C@@H](C)[C@@H]([C@@H](C)[C@@H](OC)[C@H](C)C(=O)O)O3)O2)O1 [Monensin, monensin]
S. aureus [2]
  S. aureus MIC, CAMHB: 0.25 (2×) and 2 (6×)
S. aureus [2]; bacteriological broth
  Activity against S. aureus isolates in bacteriological broth: active
S. aureus [1]
  Activity in milk: no activity; also recorded: lost any activity
  S. aureus MIC, milk: >32
